Source: patent US8134010B2, “Thiazole-based nitric oxide donors having aryl substituent(s) and uses thereof” (priority 2004, dated 2012)

Experiments:
[1] = tested on: Sprague-Dawley rats; experiment: Effect of Pet-120 on mean arterial blood pressure (MABP) after intravenous bolus infusion; format: in vivo, rat; conditions: 50 micrograms Pet-120 after 10 micrograms phenylephrine
Procedure: Male Sprague-Dawley rats weighing 310 grams at the beginning of the experiments were anesthetized with ketamine and xylazine (50 and 10 mg/kg, respectively), and an osmotic miniature pump (model 2002; ALZA Co filled with L-NAME) was canulated to right jugular vien (RJV) and implanted subcutaneously at the dorsum of the neck. L-NAME was infusion from ALZA miniature pump at a rate of 500 ng/minute for 24 hours. One day after the rat was anesthetized again with ketamine and xylazine and the both left jugular vein (LJV) and right common carotid (for MABP monitoring) was canulated. After the rats stabilized, Pet-120 was administered through the LJV (50 μg).
The efficacy of Pet-120, an exemplary NO-donating compound according to some embodiments of the present invention, was assayed as presented hereinabove in animals which were treated with phenylephrine so as to heighten their mean arterial blood pressure.

[2] = tested on: cyclic-GMP in isolated aorta of rats; experiment: Induction of in vivo nitrate tolerance (cGMP in isolated aorta of rats pre-treated in vivo); parameters: species or system rat; conditions: rats pre-treated in vivo with the same compound
Procedure: For c-GMP levels and tolerance development, the rat's thoracic aorta was isolated after exposure to the tested compound in vivo, and measured as described above in the in vitro assays.
Male Sprague Dawley rats (220 to 250 grams) were housed under constant temperature and humidity conditions. Light was maintained at a 12/12 light dark cycle. Except for 12 hours before the experiment, when food fasting was initiated, all rats had free access to standard rat pellet diet and tap water. The animals were anesthetized by intraperitoneal injection of ketamine and xylazine combination (50 and 10 milligram per kilogram, respectively). […] The catheters were filled with normal saline solution containing 1000 IU/ml of heparin and plugged with a metal pin. Catheters were externalized to the back of the neck region and secured by a polyester felt disk.
After implantation, the rats were individually housed until they regained their preoperative weight and appeared healthy (3 to 4 days post-operation). At this time point (day 0), an osmotic mini-pump (Alza Corp., Palo Alto, Calif.) delivering constant volume (10 μl/hour) of vehicle or drug was connected to one of the intravenous catheters.
For inducing tolerance to the tested NO-donor according to the present invention, the animals received 200 μg/hour of the tested compound for 16 hours (short-term-induced tolerance). A similar number of animals were processed by the same surgical procedure and received the vehicle alone (10 μl/hour of a solution consisting of 30% ethanol and 30% propylene glycol in sterile distilled water for injection).
At the end of the infusion periods used for the development of tolerance (16 hour), the rats were anesthetized as described above, the two catheters were externalized and the delivering catheters were disconnected from the mini-pump. The abdomen was opened by midline incision and the thoracic aorta were isolated, washed and cleaned from the surrounding tissues. […]

[3] = tested on: c-GMP in slices of thoracic aorta of rats; experiment: Cyclic-GMP measurement in aortic rat tissue (radioimmunoassay); format: cell-based
Procedure: GTN (10^−6 M) was added to the chamber and, 1 minute after exposure to the drug, rings (usually 3-5) were taken, wrapped with aluminum foil and immediately frozen in liquid nitrogen for storage. Control sample group was treated with the vehicle solution only. At the time of analysis, rings were thawed, blotted over a dry gauzed and weighted. A known weight of tissue was homogenized in 2 ml ice-cold modified Hank's balanced salt solution containing (in gram/liter) NaCl 8; KCl 0.4; glucose 1; KH2PO4 0.06; Na2HPO4 0.047; Phenol red 0.017 and further containing 25 mM EDTA (disodium salt). The homogenate was centrifuged at 4000 g (force units) for 10 minutes at 2-4° C. and the supernatant was thereafter transferred into fresh pre-cooled test tube containing 1 ml of acetonitrile. The tubes were vortex mixed for a few seconds and subsequently centrifuged at 4000 g for 5 minutes at 2-4° C., to remove the precipitated protein. Each supernatant was transferred into a clean test tube and evaporated to dryness under a stream of nitrogen at 55° C. The dry residue was reconstituted with 10 volumes of Tris-EDTA buffer pH 7.5 (0.05 M Tris containing 4 mM EDTA). Aliquots of 100 μl of the reconstituted solution in duplicate were used for c-GMP measurements using Amersham RIA kit, as is described in Haj-Yehia & Benet [Pharmacology, 1995, 273, 1, pp. 94-100]. Standard curves were plotted with six concentrations (0, 0.5, 1, 2, 4 and 8 pmoles of c-GMP per tube).
The NO-tolerance effect of GTN and NO-donor compounds according to the present invention was measured by following the production of c-GMP in slices of thoracic aorta of rats. Thus, the production of c-GMP was measured as described in the methods section above for the reference NO-donor compound GTN, and for the NO-donors of the present invention Pet-2, Pet-3, Pet-7, Pet-8, Pet-10, Pet-12, Pet-24, Pet-59, Pet-106, Pet-107, Pet-120, Pet-147, Pet-149, Pet-152, Pet-154 and Pet-155.

Cc1nc(-c2ccc([N+](=O)[O-])cc2)sc1CCO[N+](=O)[O-] [Pet-120, 4-Methyl-5-(2-nitrooxy-ethyl)-2-(4-nitro-phenyl)-thiazole]
effect on mean arterial blood pressure (MABP) [1]: reducing the MABP to its original levels
tolerance induction by cyclic-GMP accumulation in aorta of rats pre-treated in vivo [2]: absence of tolerance induction
accumulation of cyclic-GMP as compared with GTN ([3]; isolated rat aorta, radioimmunoassay): increased levels of cGMP
cGMP Post-infusion ([3]; rat thoracic aorta, post-infusion (repeated treatment)): 133 ± 12 pmol/g tissue
